Experimental data from US12491185B2, “Inhibitors of mPTP” (NRG Therapeutics Ltd, priority 2023, dated 2025).

What was measured:
[1] = test system: mPTP; experiment: mPTP activity (Ca2+ retention) assay in isolated rat liver mitochondria; type: biochemical; conditions: examples tested by different contract research organisations, believed comparable
Summary of the method: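 pIC50 was taken from Fluo5N fluorescence at 10 min after a 75 μM CaCl2 bolus, scaled between DMSO (0%) and 5 μM cyclosporin A (100%). Compounds, ten half-log concentrations from 30 μM to 1 nM final, sat 10 min at RT with fresh female Sprague Dawley rat liver mitochondria energized by succinate plus rotenone.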

[2] = test system: mPTP; experiment: mPTP activity assay in isolated rat brain mitochondria; type: biochemical; conditions: fluorescence at 10 min timepoint
Summary of the method: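 Fresh brain mitochondria from female Sprague Dawley rats, digitonin-washed, in pH 7.4 mannitol/MOPS/KCl buffer with pyruvate, malate, ADP, oligomycin A and 2 μM Fluo5N. Preincubated with compounds 10 min at RT. Fluo5N fluorescence then read every 3 sec for 10 min on FLIPR Tetra.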

Compound | mPTP Rat liver pIC50 [1] | mPTP Rat brain pIC50 [2]
Cn1nc(C(=O)NCC(C)(CO)Cc2ccccc2)[nH]c1=O (centres unmarked) [Example 41, N-(2-benzyl-3-hydroxy-2-methylpropyl)-1-methyl-5-oxo-4,5-dihydro-1H-1,2,4-triazole-3-carboxamide] | 5.25 | 6.38
CC(O)C(C)(CNC(=O)c1nn(C)c(=O)[nH]1)Cc1ccccc1 (centres unmarked) [Example 42, N-(2-benzyl-3-hydroxy-2-methylbutyl)-1-methyl-5-oxo-4,5-dihydro-1H-1,2,4-triazole-3-carboxamide] | 5.27 | 6.26
CCC(C)(CNC(=O)c1nn(C)c(=O)[nH]1)Cc1ccccc1 (centres unmarked) [Example 44, N-(2-benzyl-2-methylbutyl)-1-methyl-5-oxo-4,5-dihydro-1H-1,2,4-triazole-3-carboxamide] | 6.23 | 7.41
O=C(NCC1(Cc2ccccc2)CCCCC1)c1cncc(=O)[nH]1 [Example 47, N-((1-benzylcyclohexyl)methyl)-6-oxo-1,6-dihydropyrazine-2-carboxamide] | 4.71 | 6.91
O=C(NCC1(Cc2cccc(F)c2)CCC1)c1cncc(O)n1 [Example 49, N-((1-(3-fluorobenzyl)cyclobutyl)methyl)-6-hydroxypyrazine-2-carboxamide] | 4.56 | 7.44
O=C(NCC1(Cc2ccc(F)cc2)CCC1)c1cncc(O)n1 [Example 50, N-((1-(4-fluorobenzyl)cyclobutyl)methyl)-6-hydroxypyrazine-2-carboxamide] | 4.66 | 7.23
CC(c1ccc(F)cc1F)C1(CNC(=O)c2nn(C)c(=O)[nH]2)CCC1 (centres unmarked) [Example 52, N-((1-(1-(2,4-difluorophenyl)ethyl)cyclobutyl)methyl)-1-methyl-5-oxo-4,5-dihydro-1H-1,2,4-triazole-3-carboxamide] | 6.41 | 7.64
Cc1n[nH]c(C(=O)NCC2(Cc3ccccc3)CCC2)n1 [Example 64, N-((1-benzylcyclobutyl)methyl)-3-methyl-1H-1,2,4-triazole-5-carboxamide] | <4.52 | 4.64
Cn1nc(C(=O)NCC2(Cc3cc(F)ccc3F)CCC2)[nH]c1=O [Example 81, N-((1-(2,5-Difluorobenzyl)cyclobutyl)methyl)-1-methyl-5-oxo-4,5-dihydro-1H-1,2,4-triazole-3-carboxamide] | 6.85 | 6.51
Cc1ccc(F)c(CC2(CNC(=O)c3nn(C)c(=O)[nH]3)CCC2)c1 [Example 83, N-((1-(2-Fluoro-5-methylbenzyl)cyclobutyl)methyl)-1-methyl-5-oxo-4,5-dihydro-1H-1,2,4-triazole-3-carboxamide] | 6.04 | 7.27
Cn1nc(C(=O)NCC2(Cc3cccc(F)c3F)CCC2)[nH]c1=O [Example 95, N-((1-(2,3-Difluorobenzyl)cyclobutyl)methyl)-1-methyl-5-oxo-4,5-dihydro-1H-1,2,4-triazole-3-carboxamide] | 6.16 | 7.39
Cn1nc(C(=O)NCC2(Cc3cc(F)cc(F)c3)CCC2)[nH]c1=O [Example 116, N-((1-(3,5-difluorobenzyl)cyclobutyl)methyl)-1-methyl-5-oxo-4,5-dihydro-1H-1,2,4-triazole-3-carboxamide] | 6.04 | 6.45
Cn1nc(C(=O)NCC2(Cc3ccc(F)cc3F)CCOCC2)[nH]c1=O [Example 121] | 6.67 | 7.1
O=C(NCC1(Cc2ccc(F)cc2F)CCC1)c1c[nH]c(=O)cn1 [Example 132] | 6.08 | 7.31
O=C(NCC1(Cc2cc(F)ccc2F)CCC1)c1nccc(=O)[nH]1 [Example 146] | 6.85 | 7.62

Continued, values first:

mPTP Rat liver pIC50 [1] | mPTP Rat brain pIC50 [2] | Compound
5.79 | 7.61 | Cn1nc(C(=O)NCC2(Cc3ccccc3Br)CCC2)[nH]c1=O [Example 37, N-((1-(2-bromobenzyl)cyclobutyl)methyl)-1-methyl-5-oxo-4,5-dihydro-1H-1,2,4-triazole-3-carboxamide]
6.14 | 7.30 | CC(NC(=O)c1nn(C)c(=O)[nH]1)C(C)(C)Cc1ccccc1 (centres unmarked) [Example 38, N-(3,3-dimethyl-4-phenylbutan-2-yl)-1-methyl-5-oxo-4,5-dihydro-1H-1,2,4-triazole-3-carboxamide]
6.29 | 7.50 | CCC(CNC(=O)c1nn(C)c(=O)[nH]1)Cc1ccccc1 (centres unmarked) [Example 40, N-(2-benzylbutyl)-1-methyl-5-oxo-4,5-dihydro-1H-1,2,4-triazole-3-carboxamide]
5.03 | 6.81 | COC(CNC(=O)c1nn(C)c(=O)[nH]1)Cc1ccccc1 (centres unmarked) [Example 43, N-(2-methoxy-3-phenylpropyl)-1-methyl-5-oxo-4,5-dihydro-1H-1,2,4-triazole-3-carboxamide]
4.56 | 5.99 | O=C(NCC1(Cc2ccccc2)CC(F)(F)C1)c1cncc(=O)[nH]1 [Example 48, N-((1-benzyl-3,3-difluorocyclobutyl)methyl)-6-oxo-1,6-dihydropyrazine-2-carboxamide]
5.62 | 6.84 | Cn1nc(C(=O)NCC(Cc2ccccc2)C2CCC2)[nH]c1=O (centres unmarked) [Example 51, N-(2-cyclobutyl-3-phenylpropyl)-1-methyl-5-oxo-4,5-dihydro-1H-1,2,4-triazole-3-carboxamide]
6.46 | 7.46 | Cn1nc(C(=O)NCC(Cc2ccccc2)C2CC2)[nH]c1=O (centres unmarked) [Example 53, N-(2-cyclopropyl-3-phenylpropyl)-1-methyl-5-oxo-4,5-dihydro-1H-1,2,4-triazole-3-carboxamide]
5.76 | 6.73 | CC(C)(CNC(=O)c1ccc(=O)[nH]n1)Cc1ccccc1 [Example 56]
5.43 | 6.25 | CC(C)(CNC(=O)c1ccc2oc(=O)[nH]c2c1)Cc1ccccc1 [Example 57]
4.85 | 5.16 | O=C(NCC1(Cc2ccccn2)CCC1)c1cncc(=O)[nH]1 [Example 62, 6-oxo-N-((1-(pyridin-2-ylmethyl)cyclobutyl)methyl)-1,6-dihydropyrazine-2-carboxamide]
6.59 | 7.28 | Cn1nc(C(=O)NCC(Cc2cccc(F)c2)C2CC2)[nH]c1=O (centres unmarked) [Example 78, N-(2-Cyclopropyl-3-(3-fluorophenyl)propyl)-1-methyl-5-oxo-4,5-dihydro-1H-1,2,4-triazole-3-carboxamide]
6.39 | 7.59 | Cn1nc(C(=O)NCC2(Cc3cccc(Cl)c3)CCC2)[nH]c1=O [Example 79, N-((1-(3-Chlorobenzyl)cyclobutyl)methyl)-1-methyl-5-oxo-4,5-dihydro-1H-1,2,4-triazole-3-carboxamide]
5.77 | 6.29 | CCC(CNC(=O)c1nn(C)c(=O)[nH]1)Cc1cccs1 (centres unmarked) [Example 80, 1-Methyl-5-oxo-N-(2-(thiophen-2-ylmethyl)butyl)-4,5-dihydro-1H-1,2,4-triazole-3-carboxamide]
6.72 | 7.72 | Cn1nc(C(=O)NCC2(Cc3cccc(F)c3)CCC2)[nH]c1=O [Example 84, N-((1-(3-Fluorobenzyl)cyclobutyl)methyl)-1-methyl-5-oxo-4,5-dihydro-1H-1,2,4-triazole-3-carboxamide]
6.31 | 7.54 | Cn1nc(C(=O)NCC2(Cc3ccc(F)cc3F)CCCC2)[nH]c1=O [Example 92, N-((1-(2,4-Difluorobenzyl)cyclopentyl)methyl)-1-methyl-5-oxo-4,5-dihydro-1H-1,2,4-triazole-3-carboxamide]
6.59 | 7.78 | CC[C@H](CNC(=O)c1nn(C)c(=O)[nH]1)Cc1ccc(F)cc1F [Example 98, (S)—N-(2-(2,4-Difluorobenzyl)butyl)-1-methyl-5-oxo-4,5-dihydro-1H-1,2,4-triazole-3-carboxamide]
5.89 | 7.68 | Cn1nc(C(=O)NCC2(Cc3cccc(Br)c3)CCC2)[nH]c1=O [Example 99, N-((1-(3-Bromobenzyl)cyclobutyl)methyl)-1-methyl-5-oxo-4,5-dihydro-1H-1,2,4-triazole-3-carboxamide]
5.99 | 6.32 | Cn1nc(C(=O)NCC2(Cc3cccc(C#N)c3)CCC2)[nH]c1=O [Example 100, N-((1-(3-Cyanobenzyl)cyclobutyl)methyl)-1-methyl-5-oxo-4,5-dihydro-1H-1,2,4-triazole-3-carboxamide]
7.01 | 7.85 | Cc1cc(F)ccc1C[C@@H](CNC(=O)c1nn(C)c(=O)[nH]1)C1CC1 [Example 131]
6.51 | 7.5 | O=C(NCC1(Cc2ccc(F)c(F)c2)CCC1)c1nccc(=O)[nH]1 [Example 133]
7.04 | 7.42 | Cn1nc(C(=O)NCC2(Cc3ccc(F)c(F)c3)CCC2)[nH]c1=O [Example 142, N-((1-(3,4-difluorobenzyl)cyclobutyl)methyl)-1-methyl-5-oxo-4,5-dihydro-1H-1,2,4-triazole-3-carboxamide]
6.32 | 7.07 | O=C(NC[C@H](Cc1ccc(F)cc1F)C1CC1)c1cncc(=O)[nH]1 [Example 149]
